Source: ChEMBL document CHEMBL4251695, “Data Sets Representative of the Structures and Experimental Properties of FDA-Approved Drugs” (ACS Med Chem Lett, 2018)

Legend:
Assay type in all cases: ADME, organism-based
Settings in all cases: in vivo
[1] = organism: Homo sapiens; assay: Half life in human
[2] = Clearance in human
[3] = Cmax in human

clearance [2] [mL/min]	SMILES	further results
–	COc1cc2c(cc1OC)[C@@H](Cc1cc(OC)c(OC)c(OC)c1)[N+](C)(CCCOC(=O)CC/C=C/CCC(=O)OCCC[N+]1(C)CCc3cc(OC)c(OC)cc3[C@H]1Cc1cc(OC)c(OC)c(OC)c1)CC2 (some centres undefined)	t1/2 [1]: 2 min
115000	CCCCC[C@H](O)/C=C/[C@H]1[C@H](O)CC(=O)[C@@H]1CCCCCCC(=O)O [ALPROSTADIL]	–
–	CC(C)C[C@H]1C(=O)N2CCC[C@H]2[C@]2(O)O[C@](NC(=O)[C@@H]3C=C4c5cccc6[nH]c(Br)c(c56)C[C@H]4N(C)C3)(C(C)C)C(=O)N12 [BROMOCRIPTINE]	Cmax [3]: 0.711 nM
0.233	Nc1ccn([C@@H]2O[C@H](CO)[C@@H](O)[C@@H]2O)c(=O)n1 [CYTARABINE]	–
